IC50 data for 25 molecules are collected here from PubChem BioAssay AID488966 (Southern Research Specialized Biocontainment Screening …, 2010).

The test deals with E. coli UTI89 K1F phage lysis, alamar blue, 2 h. The test is described as follows: protection from phage-mediated lysis, alamar blue read-out – E. coli UTI89, K1F phage, bacterial capsule biogenesis inhibitors (AID 488966;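 further: capsule biogenesis inhibitors block K1F phage lysis so surviving cells raise fluorescence; higher fluorescence means more inhibition of phage lysis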). (Resazurin is reduced to fluorescent resorufin, in cell work by metabolically active cells.)

With `O=C(NCc1cc([N+](=O)[O-])ccc1O)c1cccnc1Sc1ccccc1Cl`, the IC50 was 175 µM.

With `N=C(N)SCCc1cccc(CCSC(=N)N)c1`, the IC50 was 114 µM.

For `CCN(CC)CCCNc1nc2ccccc2c2[nH]c3ccc(OC)cc3c12`, the IC50 was 86.6 µM.

As to `O=C(NCc1cc([N+](=O)[O-])ccc1O)c1cccnc1Sc1ccccc1`, the IC50 was 128 µM.

As for `C=CCOc1ccc(C2c3c(oc4ccccc4c3=O)C(=O)N2CCCN2CCOCC2)cc1` (stereo not given), the IC50 is 200 µM.

`CCC1=NN2C(=N)/C(=C\c3ccc(SCc4ccco4)o3)C(=O)N=C2S1`: the IC50 is 68.7 µM.

For `CCCOc1ccc(C(=O)C(CCC(CNCC)C(=O)c2ccc(OCCC)cc2)CNCC)cc1` (stereo not given), the IC50 was 132 µM.

Turning to `Cc1cc(C)c(NC(=O)C[N+](C)(C)CC(O)COc2cccc3ccccc23)c(C)c1` (stereo not given), the IC50 is 82.2 µM.

Take `Cc1ccc(C2c3c(oc4cc(C)c(C)cc4c3=O)C(=O)N2CCCN2CCOCC2)cc1` (stereo not given): the IC50 was 228 µM.

For the molecule `O=C(Nc1cccc(C2=NCCN2)c1)Nc1cccc(C2=NCCN2)c1`, the IC50 was 251 µM.

On to `CCN(CCCl)c1cc(CN(C)C)cc(NC(=O)c2ccc(C(=O)Nc3cc(CN(C)C)cc(N(CC)CCCl)c3)cc2)c1`, for which the IC50 was 118 µM.

`Cc1cccc(C)c1NC(=O)C[N+](C)(C)CC(O)COc1cccc2ccccc12` (stereo not given): the IC50 was 91 µM.

Consider `N=C(N)c1ccc(/C=C/c2ccc(C(=N)N)cc2O)cc1`, for which the IC50 was 11.1 µM.

For `N=c1n(CCN2CCCC2)c2ccccc2n1CC(O)c1ccc(Cl)c(Cl)c1` (stereo not given), the IC50 is 140 µM.

For the molecule `O=C1C2(Cl)C3(Cl)C4(Cl)C(Cl)(Cl)C5(Cl)C3(Cl)C1(Cl)C5(Cl)C24Cl` (stereo not given), the IC50 was 74.8 µM.

Consider `O=C(Nc1ccncc1)c1ccc2ncsc2c1`, for which the IC50 is 123 µM.

In the case of `Cc1ccccc1NC(=NCCCN1CC1)Nc1ccccc1C`, the IC50 is 286 µM.

`COc1ccc2nc(NC(=O)c3ccc(Br)s3)sc2c1`: the IC50 is 59.7 µM.

With `O=C(COc1ccc(Cl)cc1Cl)Nc1ccc(C(=O)Nc2ccccc2C(=O)O)cc1`, the IC50 was 74.6 µM.

For `NC(N)=N/N=C/c1ccc(OCc2ccccc2)cc1`, the IC50 is 60.8 µM.

Turning to `CC1(C(=O)O)CCC(C(=O)Nc2ccc3ccccc3c2)C1(C)C` (stereo not given), the IC50 is 178 µM.

In the case of `COc1cc(/C=N/N=C(N)N)ccc1OCc1ccccc1Cl`, the IC50 is 56.4 µM.

With `O=C(ONc1ccc(N=NC(=O)c2ccccc2O)cc1)c1ccccc1`, the IC50 is 72.7 µM.

`O=C1c2c(O)ccc(O)c2C(=O)c2c(NCCNCCO)ccc(NCCNCCO)c21`: the IC50 was 211 µM.

Regarding `CCN(CC)c1ccc2c(-c3ccc(S(=O)(=O)O)cc3S(=O)(=O)[O-])c3ccc(=[N+](CC)CC)cc-3oc2c1`, the IC50 is 30.6 µM.

In general, IC50 refers to the point on the concentration scale where inhibition reaches its midpoint.
